Values quoted from earlier work in patent US20260263442A1, “METHOD FOR TREATING L-DOPA-INDUCED DYSKINESIA USING BEFIRADOL” (Neurolixis, Inc., priority 2023, published 2026).

Assays:
[1] = system: striatal 5-HT1A receptors; details: striatum of rat, cat, macaque and human; cited from earlier work
[2] = system: L-DOPA-induced dyskinesia in Parkinson's patients; details: human, in vivo; cited from earlier work
[3] = system: L-DOPA-induced dyskinesia in Parkinson's patients; details: cited from earlier work; for Efficacy to alleviate LID, clinically tested / Effect on motor symptoms of Parkinson's disease: human, in vivo

| SMILES | Efficacy to alleviate LID, clinically tested [3] | Effect on motor symptoms of Parkinson's disease [3] | also measured |
| --- | --- | --- | --- |
| Cc1ccc(CNCC2(F)CCN(C(=O)c3ccc([18F])c(Cl)c3)CC2)nc1 [^18F-NLX-112] |  |  | Labelling of 5-HT1A receptors, PET brain imaging [1]: consistently labelled striatal 5-HT1A receptors |
| NC12CC3CC(CC(C3)C1)C2 [amantadine] |  |  | Proportion of patients who are non-responders [2]: about ⅓; Side effects limiting use [2]: hallucinations, confusion, leg edema, orthostatic hypotension |
| O=C1CC2(CCCC2)CC(=O)N1CCCCN1CCN(c2ncccn2)CC1 [buspirone] | limited efficacy |  |  |
| c1cc2c(c(N3CCNCC3)c1)OCCO2 [eltoprazine] | limited efficacy |  |  |
| Fc1ccc(-c2cncc(CNC[C@H]3CCc4ccccc4O3)c2)cc1 [sarizotan] | limited efficacy | no beneficial effect or even the opposite effect | Effect on L-DOPA efficacy, phase 2b study ([3]; Parkinson's patients with troublesome L-DOPA-induced dyskinesia): two of the three tested doses significantly reduced L-DOPA efficacy; Reduction of LID, two phase 3 clinical trials ([3]; third (and lowest) dose): ineffective in reducing LID |
| O=C1[C@@H]2[C@H]3CC[C@H](C3)[C@@H]2C(=O)N1CCCCN1CCN(c2ncccn2)CC1 [tandospirone] | limited efficacy | no beneficial effect or even the opposite effect |  |
